Test results from patent publication USRE40594E1, “Inhibitors of the bitter taste response” (Mount Sinai School of Medicine of New York University, priority 1998, dated 2008).
Where a name gives a salt, the structure may show the parent alone. Read-outs that look alike come from different tables or passages of the source.

System: bovine taste receptor cell membranes (taste receptors) with transducin
Assay: G protein activation assay (trypsin sensitivity): activation of transducin by bitter tastant plus taste membranes
Assay type: biochemical, Bovine (Bos primigenius)
Details: for inhibition of taste membrane-dependent activation of transducin by DEN (AMP analogues): DEN 5.0 mM, test compound 5.0 mM, FIG. 2; for inhibition of in vitro activation of transducin (G-protein) by taste membranes plus bitter compounds, summary statement: DEN, QUI and other bitter compounds, concentrations not given
Text: Taste receptor is contacted with gustducin or transducin and tastant, in the presence or absence of test inhibitor, under conditions suitable for activation of the G-protein present. […] In specific non-limiting embodiments, a subunits of transducin or gustducin may be combined with βγ subunits prior to this step, as set forth above. To the reaction mixture comprising taste receptors and gustducin or transducin, test inhibitor and/or bitter tastant may be added, and the resulting solution incubated to permit interaction of the elements.
In preferred embodiments, activation is assessed by a trypsin digestion assay. […] In a specific, non-limiting example, to perform a trypsin digestion assay according to the invention, TPCK-treated trypsin (1:25 trypsin to total protein in the reaction mixture) may be added, and the digestion may be performed at room temperature for about 15 minutes and stopped by adding soybean trypsin inhibitor (6:1 mol/mol inhibitor to trypsin). […] The separated polypeptides may then be transferred by electro-blotter to a poly (vinylidene difluoride) membrane blocked by the addition of 5% BLOTTO [50 mM Tris-HCI, pH 7.4/100 mM NaCl/5% nonfat dry milk], (30 min). G-protein peptides may then be visualized by binding of antibody directed toward transducin or gustducin, followed, for example, by binding of a detectably labeled secondary antibody. If a horseradish peroxidase-labeled secondary antibody is used, binding may be visualized by developing with bicinchoninic acid staining reagents and exposure to x-ray film.
G Protein Activation Assays. Bovine (Bos primigenius) tongues were collected fresh from a local slaughterhouse and transported on ice to the laboratory. Circumvallate papillae were hand dissected, frozen in liquid nitrogen, and stored at −80° C. until use. […] The pelleted membranes were rinsed twice, resuspended in homogenization buffer lacking protease inhibitors, and further homogenized by 20 passages through a 25-gauge needle. Aliquots were either flash frozen or stored on ice until use. […] The separated polypeptides were transferred by electro-blotter to a poly (vinylidene difluoride) membrane, which was blocked by the addition of 5% BLOTTO [50 mM Tris-HCI, pH 7.4/100 mM NaCl/5% nonfat dry milk], (30 min), then transducin peptides were visualized by binding of transducin antiserum and horseradish peroxidase-labeled goat anti-rabbit secondary antibody, followed by developing with bicinchoninic acid staining reagents from Bio-Rad and exposure to x-ray film.
Chemicals. All bitter tastant and buffer chemicals were of the highest purity available and were purchased either from Sigma or Boehringer Mannheim, unless otherwise noted. […] The rabbit polyclonal antitransducin antibody was a kind gift of Mel Simon and John Watson (California Institute of Technology, Pasadena, Calif.).

| Molecule | activation of transducin by the tastant in the presence of taste membranes (tastant itself, no inhibitor) | inhibition of taste membrane-dependent activation of transducin by DEN (AMP analogues) | inhibition of in vitro activation of transducin (G-protein) by taste membranes plus bitter compounds, summary statement | further results |
| --- | --- | --- | --- | --- |
| nicotine hemisulfate [reference compound] |  |  |  | activation of transducin by the tastant in the presence of taste membranes: activated transducin |
| CN1[C@@H]2CC[C@H]1C[C@@H](OC(=O)C(CO)c1ccccc1)C2 (stereo partly shown) [atropine, atropine hydrochloride, reference compound] | activated transducin |  |  |  |
| CCN(CC)CCCC(C)Nc1c2ccc(Cl)cc2nc2ccc(OC)cc12 (stereo not shown) [quinacrine, reference compound] | activated transducin |  |  |  |
| Cc1cn([C@H]2C[C@H](O)[C@@H](COP(=O)(O)O)O2)c(=O)[nH]c1=O [TMP, thymidine 5′-monophosphate] |  | inhibited | successfully inhibit | inhibition of taste membrane-dependent activation of transducin by DEN (AMP analogues) (listed as thymidine 5′-monophosphate): potently inhibited |
| Nc1ncnc2c1ncn2[C@@H]1O[C@H](COS(=O)(=O)O)[C@@H](O)[C@H]1O [AMS, adenosine 5′-monosulfate] |  | not inhibited |  | inhibition of taste membrane-dependent activation of transducin by DEN (AMP analogues) (listed as adenosine 5′-monosulfate): did not block |
| C[C@@H]1O[C@@H](O[C@H]2[C@H](Oc3cc(O)c4c(c3)O[C@H](c3ccc(O)cc3)CC4=O)O[C@H](CO)[C@@H](O)[C@@H]2O)[C@H](O)[C@H](O)[C@H]1O [naringin, reference compound] | activated transducin |  |  |  |
| Nc1ncnc2c1ncn2[C@@H]1O[C@H](COP(=O)(O)OP(=O)(O)OP(=O)(O)O)[C@@H](O)[C@H]1O [ATP, adenosine 5′ triphosphate] |  | potently inhibited | successfully inhibit |  |
| Nc1ccn([C@@H]2O[C@H](COP(=O)(O)O)[C@@H](O)[C@H]2O)c(=O)n1 [CMP, 5′-cytidylic acid] |  | inhibited | successfully inhibit | inhibition of taste membrane-dependent activation of transducin by DEN (AMP analogues) (listed as 5′-Cytidylic acid): partially inhibited |
| O=C(O)/C=C/c1ccc(O)c(O)c1 [caffeic acid, reference compound] | activated transducin |  |  |  |
| Cl.Nc1ncnc2c1ncn2[C@@H]1O[C@H](CO)[C@@H](O)[C@H]1O [ADO, adenosine hydrochloride] |  |  |  | inhibition of taste membrane-dependent activation of transducin by DEN (AMP analogues) (hydrochloride): not inhibited; inhibition of taste membrane-dependent activation of transducin by DEN (AMP analogues) (listed as adenosine, hydrochloride): did not block |
| Nc1ncnc2c1ncn2[C@@H]1O[C@H](CO)[C@@H](OP(=O)(O)O)[C@H]1O [3′AMP, adenosine 3′ monophosphate] |  | potently inhibited | successfully inhibit |  |
| Cn1c(=O)c2[nH]cnc2n(C)c1=O [THE, theophylline, reference compound] |  | not inhibited |  | inhibition of taste membrane-dependent activation of transducin by DEN (AMP analogues) (listed as theophylline): did not block |
| Cl.Nc1ncnc2nc[nH]c12 [ADE, adenine hydrochloride] |  |  |  | inhibition of taste membrane-dependent activation of transducin by DEN (AMP analogues) (hydrochloride): not inhibited; inhibition of taste membrane-dependent activation of transducin by DEN (AMP analogues) (listed as adenine, hydrochloride): did not block |
| Nc1ncnc2c1ncn2[C@@H]1O[C@H](CO)[C@@H](O)[C@H]1OP(=O)(O)O [adenosine 2′-monophosphate] |  |  | successfully inhibit | inhibition of DEN/taste receptor activation of transducin (concentration not given, not shown in FIG. 2): potently inhibited |
| Nc1ncnc2c1ncn2[C@@H]1O[C@H](C(=O)O)[C@@H](O)[C@H]1O [ACA, adenosine 5′-carboxylate] |  | not inhibited |  | inhibition of taste membrane-dependent activation of transducin by DEN (AMP analogues) (listed as adenosine 5′-carboxylate): did not block |
| C1CCN2C[C@@H]3C[C@@H](CN4CCCC[C@@H]34)[C@H]2C1 [sparteine, reference compound] | activated transducin |  |  |  |
| CC[N+](CC)(CC(=O)Nc1c(C)cccc1C)Cc1ccccc1 [DEN, denatonium benzoate, reference compound] | activated transducin |  |  |  |
| Nc1ncnc2c1ncn2[C@@H]1O[C@H](COP(=O)(O)OP(=O)(O)O)[C@@H](O)[C@H]1O [ADP, adenosine 5′ diphosphate] |  | potently inhibited | successfully inhibit |  |
| C=C[C@H]1C[N@@]2CC[C@H]1C[C@H]2[C@H](O)c1ccnc2ccc(OC)cc12 [QUI, quinine hydrochloride, reference compound] | activated transducin |  |  |  |
| Cn1c(=O)c2c(ncn2C)n(C)c1=O [CAF, caffeine, reference compound] |  | not inhibited |  | inhibition of taste membrane-dependent activation of transducin by DEN (AMP analogues) (listed as caffeine): did not block |
| Nc1ncnc2c1ncn2[C@@H]1O[C@H](COC(=O)CCC(=O)O)[C@@H](O)[C@H]1O [ASU, adenosine 5′-succinate] |  | inhibited | successfully inhibit | inhibition of taste membrane-dependent activation of transducin by DEN (AMP analogues) (listed as adenosinc 5′-succinate): potently inhibited |
